Consider two compounds from patent US9775915B2, “Trioxacarcins, trioxacarcin-antibody conjugates, and uses thereof” (President and Fellows of Harvard College, priority 2012, dated 2017).

The test system of data set [1] is lung (LXFL 529L, H-460), mammary (MCF-7), and CNS (SF-268) cancer cell lines. The settings on record: human cancer cell lines; Maskey et al. 2004; cited from earlier work.
Data set [2] can be described thus: Chemical stability (base, aqueous or alcoholic solvents). The format is physicochemical. Conditions: basic conditions in aqueous or alcoholic solvents.
A further data set has as its system H460 cells. The data set can be described thus: Cell proliferation assay (CellTiter-Blue resazurin), H460 cells. The format is cell-based. Conditions: 72 h incubation. In general terms: The colour change of resazurin is a common sign of viable cells or microbes.
Data set [3] has as its system H460, T-47D, HEK293, N87, MDA-MB-361/DYT2, HT-29, HL-60 and HEL 92.1.7 cells. The data set can be described thus: Growth inhibition (GI50) comparison of trioxacarcins, FIG. 10 cell line panel. Conditions: structure-activity comments on FIG. 10. The format is cell-based. As to the method: Cell Proliferation Assay. A suspension of H460 cells (3000 cells/well) in growth medium was seeded onto a 96-well plate. The 96-well plate was incubated for 24 h at 37° C. Stock solutions of each compound were diluted serially and the resulting solutions were administrated to cells to achieve final concentrations of 110 pM to 250 nM (trioxacarcin A) or 1.1 nM to 2.5 μM (all other compounds). After incubating at 37° C. for 72 h, 20 μL of resazurin solution (Promega CellTiter-Blue® Cell Viability Assay) was added to each well. After incubating at 37° C. for 2.0 h, the fluorescence (560 nm excitation/590 nm emission) was recorded using a microplate reader (SpectraMax PLUS^384) as a measure of viable cells. Percent growth inhibition was calculated for each well, based upon the following formula: Percent growth inhibition=100×(S−B0)/(Bt−B0); where S is the sample fluorescence, Bt is the average fluorescence for a vehicle-treated population of cells at the completion of the assay, and B0 is the average fluorescence for an untreated population of cells at the beginning of the assay. The average percent inhibition at each concentration was plotted against log(concentration), and a curve fit was generated using a four-parameter logistic equation. GI50 values were computed to reflect the concentrations at which the resulting curves pass through 50% inhibition. […]

Entries after “also recorded” stand apart in the source; their conditions may differ.

Procedure for H460 cells: H460 cells were purchased from American Type Culture Collection (ATCC).
A suspension of H460 cells (3000 cells/well) in growth medium was seeded onto a 96-well plate. The 96-well plate was incubated for 24 h at 37° C. […] After incubating at 37° C. for 72 h, 20 μL of resazurin solution (Promega CellTiter-Blue® Cell Viability Assay) was added to each well. […] Percent growth inhibition was calculated for each well, based upon the following formula: Percent growth inhibition=100×(S−B0)/(Bt−B0); where S is the sample fluorescence, Bt is the average fluorescence for a vehicle-treated population of cells at the completion of the assay, and B0 is the average fluorescence for an untreated population of cells at the beginning of the assay. The average percent inhibition at each concentration was plotted against log(concentration), and a curve fit was generated using a four-parameter logistic equation.

Broadly, the GI50 is the concentration that inhibits growth by half. On to `COc1c2c(c(O)c3c4c(c(C)cc13)[C@@H]1O[C@@]3(C(OC)OC)O[C@@H]1[C@@](O[C@H]1C[C@@H](O)[C@@](O)(C(C)=O)[C@H](C)O1)(O4)[C@@]31CO1)C(=O)[C@@H](O)C[C@@H]2O[C@H]1C[C@@](C)(O)[C@H](OC(C)=O)[C@H](C)O1` [trioxacarcin A], for which the IC70 entry in data set [1] was “subnanomolar; also recorded: subnanmolar”. The “stability under basic conditions” value in data set [2] is on record as “unstable”. Further, it took 0.85 ± 0.36 nM to inhibit growth with H460 cells by half (GI50).

For `COc1c2c(c(O)c3c4c(c(C)cc13)[C@@H]1O[C@@]3(C(OC)OC)O[C@@H]1[C@@](O)(O4)[C@@]31CO1)C(=O)[C@@H](O)C[C@@H]2O[C@H]1C[C@@](C)(O)[C@H](OC(C)=O)[C@H](C)O1` [DC-45-A1], the “antiproliferative activity (in words, FIG. 10)” value in data set [3] is “highly potent antiproliferative agents”.
